Measured values as given in patent US11319299B2, “Substituted carboxamides as inhibitors of WDR5 protein-protein binding” (PROPELLON THERAPEUTICS INC., priority 2016, dated 2022).

Target: WDR5 (Homo sapiens (Human), UniProt P61964)
Assay: Surface Plasmon Resonance (SPR) assay, KD and residence time
Assay type: binding
Settings: surface plasmon resonance (SPR) assay; read-out: WDR5 binding affinity (KD)

| Kd [nM] | SMILES |
| --- | --- |
| 0.788 | C[C@@H]1CN(c2ncc(-c3cc(NC(=O)c4c[nH]c(=O)cc4C(F)(F)F)c(N4C[C@@H](C)N(C)[C@@H](C)C4)cc3F)cn2)CCO1 [Example 388, N-[4-fluoro-5-[2-[(2R)-2-methylmorpholin-4-yl]pyrimidin-5-yl]-2-[(3R,5S)-3,4,5-trimethylpiperazin-1-yl]phenyl]-6-oxo-4-(trifluoromethyl)-1H-pyridine-3-carboxamide] |
| 0.225 | C[C@@H]1CN(c2cc(F)c(-c3ccc4c(c3)OCCCO4)cc2NC(=O)c2c[nH]c(=O)cc2C(F)(F)F)C[C@H](C)N1C [Example 69, N-[5-(3,4-dihydro-2H-1,5-benzodioxepin-7-yl)-4-fluoro-2-[(3R,5S)-3,4,5-trimethylpiperazin-1-yl]phenyl]-6-oxo-4-(trifluoromethyl)-1H-pyridine-3-carboxamide] |
| 2.51 | C[C@@H]1CN(c2ncc(-c3cc(NC(=O)c4cn(C)c(=O)cc4C(F)(F)F)c(N4C[C@@H](C)N(C)[C@@H](C)C4)cc3F)cn2)C[C@H](C)O1 [Example 246, N-[4-fluoro-5-[2-[(2R,6S)-2,6-dimethylmorpholin-4-yl]pyrimidin-5-yl]-2-[(3S,5R)-3,4,5-trimethylpiperazin-1-yl]phenyl]-1-methyl-6-oxo-4-(trifluoromethyl)pyridine-3-carboxamide] |

Same assay, conditions: surface plasmon resonance (SPR); read-out: WDR5 binding affinity (KD)

| Kd [nM] | SMILES |
| --- | --- |
| 3.02 | CNc1nccc(-c2cc(NC(=O)c3c[nH]c(=O)cc3C(F)(F)F)c(N3C[C@@H](C)N(C)[C@@H](C)C3)cc2F)n1 [Example 538, N-[4-fluoro-5-[2-(methylamino)pyrimidin-4-yl]-2-[(3R,5S)-3,4,5-trimethylpiperazin-1-yl]phenyl]-6-oxo-4-(trifluoromethyl)-1H-pyridine-3-carboxamide] |
| 3.67 | C[C@@H]1CN(c2cc(F)c(C3=CCN(C(=O)c4cnccn4)C3)cc2NC(=O)c2c[nH]c(=O)cc2C(F)(F)F)C[C@H](C)N1C [Example 442, N-[4-fluoro-5-[1-(pyrazine-2-carbonyl)-2,5-dihydropyrrol-3-yl]-2-[(3R,5S)-3,4,5-trimethylpiperazin-1-yl]phenyl]-6-oxo-4-(trifluoromethyl)-1H-pyridine-3-carboxamide] |
| 1.71 | CNC(=O)c1cc(-c2cc(NC(=O)c3c[nH]c(=O)cc3C(F)(F)F)c(N3C[C@@H](C)N(C)[C@@H](C)C3)cc2F)ccc1F [Example 604, N-[4-fluoro-5-[4-fluoro-3-(methylcarbamoyl)phenyl]-2-[(3R,5S)-3,4,5-trimethylpiperazin-1-yl]phenyl]-6-oxo-4-(trifluoromethyl)-1H-pyridine-3-carboxamide] |
| 3.52 | CC1COCCN1c1ncc(-c2cc(NC(=O)c3cn(C)c(=O)cc3C(F)F)c(N3C[C@@H](C)N(C)[C@@H](C)C3)cc2F)cn1 (stereo in doubt) [Example 475, 4-(difluoromethyl)-N-[4-fluoro-5-[2-[(3R)-3-methylmorpholin-4-yl]pyrimidin-5-yl]-2-[(3S,5R)-3,4,5-trimethylpiperazin-1-yl]phenyl]-1-methyl-6-oxopyridine-3-carboxamide] |
| 11.4 | C[C@@H]1CN(c2cc(F)c(-c3cc(C(N)=O)c(F)cc3F)cc2NC(=O)c2c[nH]c(=O)cc2C(F)(F)F)C[C@H](C)N1C [Example 632, N-[5-(5-carbamoyl-2,4-difluorophenyl)-4-fluoro-2-[(3R,5S)-3,4,5-trimethylpiperazin-1-yl]phenyl]-6-oxo-4-(trifluoromethyl)-1H-pyridine-3-carboxamide] |
| 172 | CC(C)N(C)[C@@H]1CCN(c2cc(F)c(-c3cnc(N4CCOCC4)nc3)cc2NC(=O)c2c[nH]c(=O)cc2C(F)(F)F)C1 [Example 420, N-[4-fluoro-5-(2-morpholin-4-ylpyrimidin-5-yl)-2-[(3R)-3-[methyl(propan-2-yl)amino]pyrrolidin-1-yl]phenyl]-6-oxo-4-(trifluoromethyl)-1H-pyridine-3-carboxamide] |
